From patent publication US9932300B2, “N,N′-diarylurea compounds and N,N′-diarylthiourea compounds as inhibitors of translation initiation” (President and Fellows of Harvard College, priority 2009, dated 2018) come the findings set out here.

The subject of the assay is eIF2-GTP-Met-tRNAi ternary complex. Briefly: Ternary complex assay (dual luciferase, firefly/renilla ratio) in stable KLN-tTA/pBISA-DL(ATF-4) cells; HTS and hit confirmation. Set-up: Activity 10 uM / Activity 2.5 uM / Activity 5 uM: unit not given here. It counts as cell-based, mouse. To be noted: confirmed hits of the screen (Table 5); for Activity 2.5 uM: compound at 2.5 uM; for Activity 10 uM: compound at 10 uM; for Activity 5 uM: compound at 5 uM.

Regarding `CCC[CH2][Sn]1([CH2]CCC)[O]C2C(CO)OC(n3c(Br)c(C#N)c4c(N)ncnc43)C2[O]1` (centres unmarked) [Compound 291104], the “Activity 2.5 uM” value worked out at 1.4 and the “Activity 10 uM” value worked out at 3.83.

On to `c1ccc2c(c1)cnc1c3ccccc3nn21` [Compound 292587], for which the “Activity 5 uM” value amounted to 2.577 and the “Activity 10 uM” value amounted to 3.294.

Take `CN(C)c1cc(=O)c2c(ccc3ccccc32)o1` [Compound 292795]: the “Activity 5 uM” value worked out at 3.69 and the “Activity 10 uM” value came to 4.66.

With `CCN(C)c1cc(=O)c2c(ccc3ccccc32)o1` [Compound 292796], the “Activity 5 uM” value amounted to 4.759 and the “Activity 10 uM” value was 5.6.

For the molecule `S=C(N=Nc1ccccc1)N[N-]c1ccccc1.S=C(N=Nc1ccccc1)N[N-]c1ccccc1.[Zn+2]` [Compound 293939], the “Activity 2.5 uM” value came to 1.54 and the “Activity 10 uM” value came out at 7.78.

On to `CCOC(=C\C=C\C1=[N+](C)c2ccccc2C1(C)C)/C=C/C=C1/N(C)c2ccccc2C1(C)C.F[B-](F)(F)F` [Compound 295477], for which the “Activity 2.5 uM” value is reported as 6.24 and the “Activity 10 uM” value is 9.07.

`CCCCCCCCCCCCCCCC[N+](C)(C)CCOC(C)=O.O=S(=O)([O-])C(F)(F)F` [Compound 297153]: the “Activity 2.5 uM” value was determined as 0.95 and the “Activity 10 uM” value is listed as 4.39.

For the molecule `CCCCCCCCCCCCCCCC[N+](C)(C)CCN=[N+]=[N-].O=S(=O)([O-])C(F)(F)F` [Compound 297154], the “Activity 2.5 uM” value came to 1.24 and the “Activity 10 uM” value was found to be 5.62.

Turning to `Br.CCCCCCCCCCCCCCCC[N+](C)(C)CCN.[Br-]` [Compound 297156], the “Activity 2.5 uM” value came out at 1.08 and the “Activity 10 uM” value was determined as 5.15.

For the molecule `CCCCC(Oc1cc(C(C)(C)C)c(O)c(C(C)(C)C)c1)C(=O)O` (centres unmarked) [Compound 297621], the “Activity 2.5 uM” value is on record as 18.95.

`O=C(NC(=O)c1c(F)cccc1F)Nc1nc2ccccc2s1` [Compound 298153]: the “Activity 2.5 uM” value stood at 3.67 and the “Activity 10 uM” value is given as 3.43.

Take `c1ccc(-c2ccc(-c3csnn3)cc2)cc1` [Compound 298243]: the “Activity 5 uM” value is 2.747 and the “Activity 10 uM” value is reported as 3.327.

As for `CN(C)c1ccc(N=Nc2ccc3c4c(cccc24)-c2ccccc2-3)cc1` [Compound 299107], the “Activity 2.5 uM” value worked out at 8.13 and the “Activity 10 uM” value is listed as 279.99.

With `[Pd].[Pd].[S-]CC[S-].[S-]CC[S-].c1ccc([PH+](c2ccccc2)c2ccccc2)cc1.c1ccc([PH+](c2ccccc2)c2ccccc2)cc1` [Compound 300554], the “Activity 2.5 uM” value was determined as 0.48 and the “Activity 10 uM” value was 8.96.

Consider `CC(C)[S-].CC(C)[S-].[Pt+2].c1ccc([PH+](c2ccccc2)c2ccccc2)cc1.c1ccc([PH+](c2ccccc2)c2ccccc2)cc1` [Compound 300559], for which the “Activity 2.5 uM” value was found to be 0.71 and the “Activity 10 uM” value is reported as 4.71.

On to `Cc1ccc(NC(=O)c2cc3ccccc3cc2O)c(C)c1.Cc1ccc(NC(=O)c2cc3ccccc3cc2O)c(C)c1.[Mn+2]` [Compound 306697], for which the “Activity 2.5 uM” value is reported as 1.77 and the “Activity 10 uM” value is 19.5.

In the case of `FC(F)(F)c1cc(NC2=NCCN=C(Nc3cc(C(F)(F)F)cc(C(F)(F)F)c3)SS2)cc(C(F)(F)F)c1` [Compound 309898], the “Activity 2.5 uM” value is listed as 1.07 and the “Activity 10 uM” value came to 13.68.

With `C[N+]1=C(/C=C/Nc2cc3c4ccccc4ccc3c3ccccc23)C(C)(C)c2ccccc21.[Cl-]` [Compound 313162], the “Activity 2.5 uM” value is 1.07 and the “Activity 10 uM” value was 4.03.

On to `CN(C)Cc1[c-]c(CN(C)C)ccc1.[Br][Pt]` [Compound 315819], for which the “Activity 2.5 uM” value is on record as 2.12 and the “Activity 10 uM” value turned out to be 13.17.

For the molecule `Clc1cc[c]([Sb]2([c]3ccc(Cl)cc3)([c]3ccc(Cl)cc3)[O]C(C(Cl)(Cl)Cl)[O]2)cc1` (centres unmarked) [Compound 316746], the “Activity 2.5 uM” value is 0.88 and the “Activity 10 uM” value is listed as 6.11.

In the case of `[C-]#[O+].[C-]#[O+].[C-]#[O+].[CH3][Sn]([c]1ccccc1)[c]1ccccc1.[Co].c1ccc([PH+](c2ccccc2)c2ccccc2)cc1` [Compound 319697], the “Activity 2.5 uM” value came to 3.1.

For the molecule `[C-]#[O+].[C-]#[O+].[C-]#[O+].[C-]#[O+].[C-]#[O+].[CH3][Sn]([Cl])[c]1ccccc1.[Mn]` [Compound 319699], the “Activity 2.5 uM” value came out at 0.29 and the “Activity 10 uM” value is 3.62.

Turning to `S=c1nccc[nH]1.[Pd]` [Compound 321197], the “Activity 5 uM” value amounted to 5.014 and the “Activity 10 uM” value is 5.0845.

`S=c1nccc[nH]1.[Pt]` [Compound 321198]: the “Activity 5 uM” value is 8.313 and the “Activity 10 uM” value is listed as 9.062.

Turning to `COc1ccc(CCN2C(=O)C(=O)N(c3ccc(Cl)c(Cl)c3)C2=O)cc1OC` [Compound 323938], the “Activity 2.5 uM” value turned out to be 0.99 and the “Activity 10 uM” value worked out at 5.53.

On to `CCCCCC(CN(C)C)C(=O)CC(SCC)c1ccc(Cl)c(Cl)c1` (centres unmarked) [Compound 326123], for which the “Activity 2.5 uM” value worked out at 0.47 and the “Activity 10 uM” value was determined as 12.9.

Turning to `c1ccc(Nc2nnc(-c3ccc4c(c3)OCO4)o2)cc1` [Compound 326181], the “Activity 5 uM” value is 5.584 and the “Activity 10 uM” value was determined as 7.027.

With `CSC(=Nc1nc2ccc([N+](=O)[O-])cc2s1)SC` [Compound 327371], the “Activity 5 uM” value was determined as 13.29 and the “Activity 10 uM” value stood at 22.247.

Turning to `O=[N+]([O-])c1cccnc1S(=O)(=O)c1ccccn1` [Compound 327414], the “Activity 5 uM” value is listed as 3.793 and the “Activity 10 uM” value is listed as 6.977.

`CN(C)c1ccc(NC(=O)c2ccccc2O)cc1` [Compound 328479]: the “Activity 5 uM” value is given as 7.502 and the “Activity 10 uM” value stood at 7.342.

Regarding `Cc1cccc(/C=N/Nc2ccc3ccccc3n2)n1` [Compound 332423], the “Activity 5 uM” value is listed as 4.287 and the “Activity 10 uM” value is recorded as 5.4265.

As to `Cc1cccc(/C=N/Nc2cc(C)c3ccccc3n2)n1` [Compound 332426], the “Activity 2.5 uM” value turned out to be 2.37 and the “Activity 10 uM” value worked out at 3.15.

As to `C/C(=N\NC(=S)N1CCSCC1)c1ccccn1` [Compound 332543], the “Activity 5 uM” value was determined as 4.083 and the “Activity 10 uM” value amounted to 5.182.

In the case of `O=C1C(Cl)=C(Nc2nccs2)C(=O)c2ccccc21` [Compound 337757], the “Activity 5 uM” value worked out at 6.205 and the “Activity 10 uM” value is reported as 5.978.

For `N#C/C(=C/C=C/c1ccccc1)c1ccccc1` [Compound 338119], the “Activity 5 uM” value is 3.435 and the “Activity 10 uM” value stood at 5.6885.

For `Cc1ccc(/C=C/c2ccc([N+](=O)[O-])cc2)cc1` [Compound 338462], the “Activity 5 uM” value came to 4.54 and the “Activity 10 uM” value came out at 6.4125.

Take `COc1ccc2c(Cc3ccccc3)c3[n+](cc2c1OC)CCc1cc2c(cc1-3)OCO2.[Br-]` [Compound 338631]: the “Activity 2.5 uM” value stood at 1.12 and the “Activity 10 uM” value came to 3.39.

Regarding `O=C(CC(c1cccnc1)C(C(=O)c1ccc(Cl)cc1)C(CC(=O)c1ccc(Cl)cc1)c1cccnc1)c1ccc(Cl)cc1` (centres unmarked) [Compound 339119], the “Activity 2.5 uM” value is on record as 1.01 and the “Activity 10 uM” value was found to be 4.42.
